Key:
β1 [1] = biological target: T1, β1 (Rattus norvegicus, UniProt P18090); assay: Isolated rat right atrium, antagonism of L-isoproterenol-induced rate increase (Schild plot); settings: for β1 pA2 value, Right atrium: vs L-isoproterenol, mean ± S.E. of six to eight
T1 construct: The right and left atria were then separated; from tissue; host or cells: isolated rat right atrium (spontaneously beating) and left atrium (electrically driven)
Protocol: The entire heart of rat (weighing 200˜300 g) was removed immediately after the rat was sacrificed and the blood drained by incised carotid arteries, and placed in Kreb's solution equilibrated to a mixture of 95% O2 and 5% CO2 at room temperature (20˜25° C.). The right and left atria were then separated.
The spontaneously-beating right atria was clipped on both end by heart shaped clips, where one end was fixed at the bottom of 10 ml of tissue bath made of physiological saline solution, and temperature maintained at 37° C. The other end of the atria was connected to a force transducer, and isometric contractions and beating rate of the right atria were recorded by COULBOURN AT-High-Speed VideoFigure. After the samples were given 250 mg of contractions and reach equilibrium the following experiments were carried out:
(§1) When the spontaneously beating rate of right atria reached a certain stability, cumulative administration of L-isoproterenol from 1×10^−[…] M caused the heart rate to increase continuously, and a cumulative dose-response curve was obtained. Then the L-isoproterenol was thoroughly washed off with Kreb's solution to recover the right atria's heart rate stability. After the equilibrum was reached again for at least 60 minutes, different concentrations (10^−7, 10^−6, 10^−5 M) of compounds were added. 30 minutes later, cumulative administration of L-isoproterenol from […] were carried out again, and another new cumulative dose-response curve was obtained. Administration of L-isoproterenol started from concentration 1×10^−10 M, and the concentration was raised 0.5 log each time for a total of six times. Cumulative administration interval was when the previous concentration reached its greatest effect, the next concentration would be immediately given. The time interval was approximately 3˜5 minutes, and the EC50 value could be obtained. From Schild plots, the pA2 of compounds could be found. In other groups of rats, after separate administration of test compounds, their pA2 values were obtained.
(§2) According to the method mentioned by Arunlakshana, O. et al.(Br. J. Pharmacol. Vol.14, pp. 48-57, 1959), which used the logarithm values of compound concentration testings as the x-coordinates, and the logarithm values of blocking agent of similar effect and […] as the y-coordinates, the data obtained were plotted into Figures and the slope of regression found. From x-coordinates of the line of regression, the intercept value was found, which is the pA2 value of the compound under testing. The equation is as follows: [formula] [formula] • [B]=Test compound concentration in moles • KB: equilibrium dissociation constant • n: value of slope • DR: test EC50 divided by control EC50 • CF: EC50 of second or third control groups divided by EC50 of first control group

β1 [2] = biological target: T1, β1; assay: Isolated rat left atrium (electrically driven), antagonism of L-isoproterenol (Schild plot); settings: for β1 pA2 value, Left atrium: vs L-isoproterenol, mean ± S.E. of six to eight
Protocol: as §1, §2
The inspontaneously-beating left atrial tissue was obtained from rat's isolated right atrial tissue experiments. […] The contraction rate was 2 Hz and the resting tension 0.5 gm. After 60 minutes of equilibration, the following experiments were performed: • (a) Completion of cumulative concentration-response curve: similar to experimental method on isolated right atrium; • (b) Calculation of pA2 value: similar to calculation method on isolated right atrium.

Calcium = assay: Isolated Wistar rat thoracic aorta, antagonism of CaCl2-induced contraction; settings: vs CaCl2
Protocol: (§3) After sacrificing Wistar rat of weight between 200˜300 gm, the thoracic aorta was immediately removed and placed in cold Kreb's solution. The fatty connecting tissue surrounding the vessel wall was removed and the thoracic aorta was cut into rings of length 5 mm. The two ends of each ring was pieced and fixed with “Z” shaped platinum wires. Then the thoracic aorta was suspended in 10 ml of tissue bath, aerated with air mixture (95% O2+5% CO2) and maintained at 37° C., where one end was fixed at the bottom of tissue trough, the other end connected to force transducer to record the long contraction via recorder. The sample was given 1 gm of tension and equilibrated for 60 minutes before the following experiments were carried out.
After thoracic aorta had reached equilibrium in the tissue trough, cumulative administration of CaCl2 from […] caused the blood vessel contract to increase tension continuously, and a cumulative dose-response curve was obtained. Then the CaCl2 was thoroughly washed off with Kreb's solution to recover the aorta stability. After the equilibrum was reached again for at east 60 minutes, different concentrations as 10^−8, 10^−7, 10^−6 M of test compounds were added. 30 minutes later, cumulative administration of CaCl2 from 3×10^−5˜10^−2 M were carried out again, and another new cumulative dose-response curve was obtained. Cumulative administration interval was when the previous concentration reached its greatest effect, the next concentration would be immediately given. The time interval was approximately 3˜5 minutes, and the EC50 value could be obtained. From Schild plots, the pA2 of test compounds could be found. Calculation of pA2 value: similar to calculation method on isolated right atrium.

β2 = biological target: T2, β2 (Cavia porcellus, UniProt Q8K4Z4); assay: Isolated guinea pig trachea, antagonism of L-isoproterenol relaxation (Schild plot); settings: for β2 pA2 value, Trachea: vs L-isoproterenol, mean ± S.E. of six to eight
T2 construct: a portion of tracheal approximately 4 cm long was removed; from tissue; host or cells: isolated guinea pig trachea (reserpinised animals)
T2 sequence (Q8K4Z4 whole entry): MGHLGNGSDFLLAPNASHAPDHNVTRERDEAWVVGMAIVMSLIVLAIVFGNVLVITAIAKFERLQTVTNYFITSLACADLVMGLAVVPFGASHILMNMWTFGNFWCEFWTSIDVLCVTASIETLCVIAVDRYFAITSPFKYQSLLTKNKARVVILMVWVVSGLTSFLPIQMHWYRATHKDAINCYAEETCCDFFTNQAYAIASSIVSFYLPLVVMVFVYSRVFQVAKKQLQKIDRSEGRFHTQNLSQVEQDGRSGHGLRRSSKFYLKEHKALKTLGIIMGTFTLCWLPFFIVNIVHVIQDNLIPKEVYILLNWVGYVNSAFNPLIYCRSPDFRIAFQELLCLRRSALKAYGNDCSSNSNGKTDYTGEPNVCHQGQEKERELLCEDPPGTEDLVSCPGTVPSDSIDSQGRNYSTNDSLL
Protocol: Guinea pigs of weight between 250˜350 gm were used.
After the guinea pigs were sacrificed, a slit was made along the neck, and a portion of tracheal approximately 4 cm long was removed. The tracheal was then placed in Kreb's solution aerated with a mixture of 95% O2 and 5% CO2 and maintained at room temperature about 22˜25° C. […] The two ends of the tracheal were clamped with frog-heart shaped clamps, one end was fixed at the bottom of tissue bath filled with 200 ml of Kreb's solution, maintained at 37° C., while the other end was connected to a force transducer. Through a COULBOURN AT-High-Speed Videograph, long isometric contractions were recorded. After the sample was given 1.5 gm of tension and equilibrated, the following experiments were performed:
Then the tracheal was repeatedly washed with Kreb's solution for 20 minutes and […] of carbochol was added to cause contraction in the guinea pig's tracheal. When the contraction reached the maximum, every division of tracheal was used to complete two concentration response curve of L-isoproternol, one of them without administration of test compound and used as control; while the other curve was administered with 10^−7, 10^−6 and 10^−5 M test compounds for 30 minutes before concentration response curve was completed. This is the test group.
Similar to the calculation method for isolated right atrium experiment.

[3] = Heart rate and blood pressure in living rat (anaesthetized, i.v.); type: in vivo, Wistar rat; settings: via femoral vein, dose not given (method: 0.5; 1.0; 3.0 mg/kg)
Source text: Male Wistar rats, weighing 200˜300 g were abdominal anaesthetized with pentobarbital sodium. Tracheal was cannulated to maintain normal respiration. Polyethylene tube (inside diameter 0.58 mm, outside diameter 0.97 mm) was inserted into the left femoral vein to facilitate drug administration. A 3-way stopcock was used, with one end connected to a syringe for drug injection, while the other end was connected to the syringe filled with physiological saline. The latter was used to prevent residual drugs in the polyethylene tube after injection, which would affect experimental accuracy.
The right femoral artery was also inserted with polyethylene, and a 3-way stopcock was used tool, where one end was connected to heparin solution to prevent embolism. The other end was connected to a Disposable Diaphragm Dome, TA10019, and linked to a transducer. Through an amplifier, a recorder recorded the overall and average arterial pressure; heart rate to evaluate the effect of drug on blood pressure and heart rate. Different concentrations 0.5; 1.0; 3.0 mg/kg of compounds were given to the rats via femoral vein and the differences in the heart rate and blood pressure were compared. Furthermore in another group, test compounds of concentration 0.5; 1.0; 3.0 mg/kg were separately given to different rats via femoral vein, and the differences in the heart rate and blood pressure were compared.

α1 = assay: Isolated Wistar rat thoracic aorta, antagonism of norepinephrine contraction (Schild plot); settings: vs norepinephrine, mean ± S.E. of six to eight
Protocol: as §3
After thoracic aorta had reached equilibrium in the tissue trough, cumulative administration of norepinephrine from 10^−10˜3×10^−4 M caused the blood vessel contract to increase tension continuously, and a cumulative dose-response curve was obtained. Then the norepinephrine was thoroughly washed off with Kreb's solution to recover the aorta stability. After the equilibrum was reached again for at least 60 minutes, different concentrations as 10^−7, 10^−6, 10^−5 M of test compounds were added. 30 minutes later, cumulative administration of norepinephrine from […] were carried out again, and another new cumulative dose-response curve was obtained. Administration of norepinephrine started from concentration 1×10^−10 M, and the concentration was raised 0.5 log each time. Cumulative administration interval was when the previous concentration reached its greatest effect, the next concentration would be immediately given. The time interval was approximately 3˜5 minutes, and the EC50 value could be obtained. From Schild plots, the pA2 of test compounds could be found. Calculation of pA2 value: similar to calculation method on isolated right atrium.

T1 sequence (P18090 whole entry): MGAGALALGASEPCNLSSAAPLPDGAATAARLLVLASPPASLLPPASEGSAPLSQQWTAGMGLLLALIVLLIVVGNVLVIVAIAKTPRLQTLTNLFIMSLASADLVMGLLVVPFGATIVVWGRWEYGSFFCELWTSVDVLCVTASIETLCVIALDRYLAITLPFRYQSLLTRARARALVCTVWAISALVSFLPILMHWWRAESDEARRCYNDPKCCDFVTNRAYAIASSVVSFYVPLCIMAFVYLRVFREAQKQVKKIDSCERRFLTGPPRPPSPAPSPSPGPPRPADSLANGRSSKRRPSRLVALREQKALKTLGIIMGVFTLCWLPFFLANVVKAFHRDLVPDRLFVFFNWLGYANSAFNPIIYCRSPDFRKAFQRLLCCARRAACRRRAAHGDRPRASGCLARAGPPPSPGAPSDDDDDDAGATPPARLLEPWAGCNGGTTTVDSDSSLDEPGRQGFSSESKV

SMILES	β1 Slope of Schild plot, Right atrium (β1 [1])	β1 pA2 value, Right atrium (β1 [1])	β1 Slope of Schild plot, Left atrium (β1 [2])	β1 pA2 value, Left atrium (β1 [2])	Calcium PKCa^−1 value, Aorta (Calcium)	β2 Slope of Schild plot, Trachea (β2)	β2 pA2 value, Trachea (β2)	Decrease of blood pressure [3] [mmHg]	α1 pA2 value, Aorta (α1)
COC(=O)C1=C(C)NC(C)=C(C(=O)OC)C1c1ccc(OCC(O)CNCCOc2ccccc2C)c(OC)c1 (stereo not drawn) [Labedipinedilol-D]	(0.84 ± 0.03)	7.23 ± 0.03	(1.12 ± 0.04)	6.31 ± 0.12	8.23 ± 0.06	(1.10 ± 0.06)	5.70 ± 0.06	55 ± 9	7.23 ± 0.05
COC(=O)C1=C(C)NC(C)=C(C(=O)OC)C1c1ccc(OCC(O)CNCCOc2ccccc2Cl)c(OC)c1 (stereo not drawn) [Labedipinedilol-E]	(1.12 ± 0.06)	6.24 ± 0.06	(1.07 ± 0.05)	6.15 ± 0.09	8.08 ± 0.04	(0.65 ± 0.03)	5.07 ± 0.12	58 ± 7	8.46 ± 0.05
COC(=O)C1=C(C)NC(C)=C(C(=O)OC)C1c1ccc(OCC(O)CNCCOc2ccccc2OC)cc1 (stereo not drawn) [Labedipinedilol-B]	(0.97 ± 0.10)	6.61 ± 0.11	(0.83 ± 0.06)	6.81 ± 0.08	8.02 ± 0.04	(0.85 ± 0.03)	6.48 ± 0.07	60 ± 15	7.55 ± 0.05
COC(=O)C1=C(C)NC(C)=C(C(=O)OC)C1c1ccc(OCC(O)CN2CCN(c3ccccc3Cl)CC2)c(OC)c1 (stereo not drawn) [Labedipinedilol-C]	(1.02 ± 0.04)	7.01 ± 0.09	(0.99 ± 0.03)	7.23 ± 0.07	8.12 ± 0.04	(0.92 ± 0.02)	5.54 ± 0.16	50 ± 17	6.87 ± 0.08

From patent publication US6846826B2, “Phenoxypropanol connected with phenylpiperazine and phenoxyalkylamine terminal in its side chain” (priority 2001, dated 2005)
